Test results from patent US20220142941A1, “COMBINATION THERAPEUTIC REGIMENS WITH 1,6-DIBROMO-1,6-DIDEOXY-DULCITOL” (Eleison Pharmaceuticals LLC, priority 2019, published 2022).
“Also recorded” adds a separate entry of the source.

Key:
Format in all cases: cell-based, human
[1] = tested on: panel of 20 patient derived cell cultures; experiment: DBD combination treatment, overall result over the panel; conditions: Tables 2 and 3, day 5 and day 8, all cultures
Experimental: (§1) Crystalline DBD polymorph treatment was combined with chemotherapy, radiotherapy and targeted inhibitors to determine whether the crystalline DBD polymorph form could: enhance efficacy of the conventional therapies; enhance efficacy when combined with newer ‘targeted’ therapies; or would make (a subset of) cultures more sensitive to this treatment.
(§2) Therefore, cultures were treated with: • a.

GS102periNS = experiment: DBD combination treatment, viability enhancement factor; conditions: GS102periNS (p20 + p21), labelled therapy combined with crystalline DBD polymorph
Experimental: as §1, §2

GS104periNS = experiment: as above; conditions: GS104periNS (p21 + p22), labelled therapy combined with crystalline DBD polymorph
Experimental: as §1, §2

GS184NS = experiment: as above; conditions: GS184NS (p18 + p19), labelled therapy combined with crystalline DBD polymorph;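 also: DBD at its own IC50 and half IC50 determined at Day 5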
Experimental: as §1, §2

GS186coreNS = experiment: as above; conditions: GS186coreNS (p18), labelled therapy combined with crystalline DBD polymorph
Experimental: as §1, §2

GS186periNS = experiment: as above; conditions: GS186periNS (p15), labelled therapy combined with crystalline DBD polymorph
Experimental: as §1, §2

GS203NS = experiment: as above; conditions: GS203NS (P19 + p18), labelled therapy combined with crystalline DBD polymorph
Experimental: as §1, §2

GS224NS = experiment: as above; conditions: GS224NS (p17), labelled therapy combined with crystalline DBD polymorph
Experimental: as §1, §2

GS245NS = experiment: as above; conditions: GS245NS (p16 + p15), labelled therapy combined with crystalline DBD polymorph
Experimental: as §1, §2

GS249NS = experiment: as above; conditions: GS249NS (p17), labelled therapy combined with crystalline DBD polymorph
Experimental: as §1, §2

GS257NS = experiment: as above; conditions: GS257NS (p16 + p17), labelled therapy combined with crystalline DBD polymorph;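 also: DBD at its own IC50 and half IC50 determined at Day 5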
Experimental: as §1, §2

GS261NS = experiment: as above; conditions: GS261NS (p13), labelled therapy combined with crystalline DBD polymorph
Experimental: as §1, §2

GS279coreNS = experiment: as above; conditions: Day 5; GS279coreNS (p12 + p13); labelled therapy combined with crystalline DBD polymorph
Experimental: as §1, §2

GS279periNS = experiment: as above; conditions: GS279periNS (p16 + p15), labelled therapy combined with crystalline DBD polymorph;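 also: DBD at its own IC50 and half IC50 determined at Day 5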
Experimental: as §1, §2

GS281NS = experiment: as above; conditions: GS281NS (p15), labelled therapy combined with crystalline DBD polymorph
Experimental: as §1, §2

GS289NS = experiment: as above; conditions: GS289NS (p15 + p16), labelled therapy combined with crystalline DBD polymorph;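 also: DBD at its own IC50 and half IC50 determined at Day 5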
Experimental: as §1, §2

GS304NS = experiment: as above; conditions: GS304NS (p16), labelled therapy combined with crystalline DBD polymorph
Experimental: as §1, §2

GS323periNS = experiment: as above; conditions: Day 5; GS323periNS (p20 + p19); labelled therapy combined with crystalline DBD polymorph
Experimental: as §1, §2

GS324coreNS = experiment: as above; conditions: GS324coreNS (p19), labelled therapy combined with crystalline DBD polymorph
Experimental: as §1, §2

GS359NS = experiment: as above; conditions: GS359NS (p15 + p14), labelled therapy combined with crystalline DBD polymorph
Experimental: as §1, §2

GS365NS = experiment: as above; conditions: GS365NS (p17 + p16), labelled therapy combined with crystalline DBD polymorph
Experimental: as §1, §2

| SMILES | enhancement factor (viability % of most effective monotherapy divided by viability % of combination) (GS102periNS; Day 5) | enhancement factor (viability % of most effective monotherapy divided by viability % of combination) (GS102periNS; Day 8) | enhancement factor (viability % of most effective monotherapy divided by viability % of combination) (GS104periNS; Day 5) | enhancement factor (viability % of most effective monotherapy divided by viability % of combination) (GS104periNS; Day 8) | enhancement factor (viability % of most effective monotherapy divided by viability % of combination) (GS184NS; Day 5) | enhancement factor (viability % of most effective monotherapy divided by viability % of combination) (GS184NS; Day 8) | enhancement factor (viability % of most effective monotherapy divided by viability % of combination) (GS186coreNS; Day 5) | enhancement factor (viability % of most effective monotherapy divided by viability % of combination) (GS186coreNS; Day 8) | enhancement factor (viability % of most effective monotherapy divided by viability % of combination) (GS186periNS; Day 5) | enhancement factor (viability % of most effective monotherapy divided by viability % of combination) (GS186periNS; Day 8) | enhancement factor (viability % of most effective monotherapy divided by viability % of combination) (GS203NS; Day 8) | enhancement factor (viability % of most effective monotherapy divided by viability % of combination) (GS224NS; Day 5) | enhancement factor (viability % of most effective monotherapy divided by viability % of combination) (GS224NS; Day 8) | enhancement factor (viability % of most effective monotherapy divided by viability % of combination) (GS245NS; Day 5) | enhancement factor (viability % of most effective monotherapy divided by viability % of combination) (GS245NS; Day 8) | enhancement factor (viability % of most effective monotherapy divided by viability % of combination) (GS249NS; Day 5) | enhancement factor (viability % of most effective monotherapy divided by viability % of combination) (GS257NS; Day 5) | enhancement factor (viability % of most effective monotherapy divided by viability % of combination) (GS257NS; Day 8) | enhancement factor (viability % of most effective monotherapy divided by viability % of combination) (GS261NS; Day 5) | enhancement factor (viability % of most effective monotherapy divided by viability % of combination) (GS261NS; Day 8) | also measured |
| --- | --- | --- | --- | --- | --- | --- | --- | --- | --- | --- | --- | --- | --- | --- | --- | --- | --- | --- | --- | --- | --- |
| Cc1ccc(NC(=O)c2ccc(CN3CCN(C)CC3)cc2)cc1Nc1nccc(-c2cccnc2)n1 [Imatinib] | – | – | – | – | – | – | – | – | – | – | – | – | – | – | – | – | – | – | – | – | enhancement factors overall, in combination with DBD [1]: highest enhancement factors; also recorded: high enhancement factor, most cases |
| Cc1[nH]c2ccccc2c1CCNCc1ccc(/C=C/C(=O)NO)cc1 [Panobinostat] | 1.591 | 3.863 | 1.339 | 1.796 | 1.712 | 2.357 | 2.557 | 5.363 | 2.105 | 8.116 | 1.651 | 4.399 | 7.387 | 1.129 | 1.202 | 1.074 | 1.643 | 1.590 | 1.392 | 2.253 | enhancement factor (viability % of most effective monotherapy divided by viability % of combination) (GS249NS; Day 8): 0.944; enhancement factor (viability % of most effective monotherapy divided by viability % of combination) (GS279coreNS): 5.962; enhancement factor (viability % of most effective monotherapy divided by viability % of combination) (GS279periNS; Day 5): 1.943; enhancement factor (viability % of most effective monotherapy divided by viability % of combination) (GS279periNS; Day 8): 5.488; enhancement factor (viability % of most effective monotherapy divided by viability % of combination) (GS281NS; Day 5): 1.480; enhancement factor (viability % of most effective monotherapy divided by viability % of combination) (GS281NS; Day 8): 4.353; enhancement factor (viability % of most effective monotherapy divided by viability % of combination) (GS289NS; Day 5): 2.519; enhancement factor (viability % of most effective monotherapy divided by viability % of combination) (GS289NS; Day 8): 3.535; enhancement factor (viability % of most effective monotherapy divided by viability % of combination) (GS304NS; Day 5): 4.406; enhancement factor (viability % of most effective monotherapy divided by viability % of combination) (GS304NS; Day 8): 5.405; enhancement factor (viability % of most effective monotherapy divided by viability % of combination) (GS323periNS): 1.656; enhancement factor (viability % of most effective monotherapy divided by viability % of combination) (GS324coreNS; Day 5): 3.192; enhancement factor (viability % of most effective monotherapy divided by viability % of combination) (GS324coreNS; Day 8): 9.253; enhancement factor (viability % of most effective monotherapy divided by viability % of combination) (GS359NS; Day 5): 4.343; enhancement factor (viability % of most effective monotherapy divided by viability % of combination) (GS359NS; Day 8): 5.512; enhancement factor (viability % of most effective monotherapy divided by viability % of combination) (GS365NS; Day 5): 2.914; enhancement factor (viability % of most effective monotherapy divided by viability % of combination) (GS365NS; Day 8): 3.253 |
| Cn1nnc2c(C(N)=O)ncn2c1=O [TMZ, Temozolomide] | 1.268 | 1.309 | 1.101 | 0.987 | 1.362 | 1.531 | 1.751 | 2.029 | 2.167 | 1.220 | 1.159 | 1.335 | 1.470 | 1.099 | 1.088 | 1.602 | 1.005 | 0.858 | 1.271 | 1.462 | enhancement factor (viability % of most effective monotherapy divided by viability % of combination) (GS203NS; Day 5): 1.055; enhancement factor (viability % of most effective monotherapy divided by viability % of combination) (GS279coreNS): 1.440; enhancement factor (viability % of most effective monotherapy divided by viability % of combination) (GS279periNS; Day 5): 1.162; enhancement factor (viability % of most effective monotherapy divided by viability % of combination) (GS279periNS; Day 8): 1.129; enhancement factor (viability % of most effective monotherapy divided by viability % of combination) (GS281NS; Day 5): 1.264; enhancement factor (viability % of most effective monotherapy divided by viability % of combination) (GS281NS; Day 8): 1.161; enhancement factor (viability % of most effective monotherapy divided by viability % of combination) (GS289NS; Day 5): 1.376; enhancement factor (viability % of most effective monotherapy divided by viability % of combination) (GS289NS; Day 8): 1.032; enhancement factor (viability % of most effective monotherapy divided by viability % of combination) (GS304NS; Day 5): 1.147; enhancement factor (viability % of most effective monotherapy divided by viability % of combination) (GS304NS; Day 8): 1.134; enhancement factor (viability % of most effective monotherapy divided by viability % of combination) (GS323periNS): 1.553; enhancement factor (viability % of most effective monotherapy divided by viability % of combination) (GS324coreNS; Day 5): 1.700; enhancement factor (viability % of most effective monotherapy divided by viability % of combination) (GS324coreNS; Day 8): 1.377; enhancement factor (viability % of most effective monotherapy divided by viability % of combination) (GS359NS; Day 5): 1.830; enhancement factor (viability % of most effective monotherapy divided by viability % of combination) (GS359NS; Day 8): 1.700; enhancement factor (viability % of most effective monotherapy divided by viability % of combination) (GS365NS; Day 5): 1.156; enhancement factor (viability % of most effective monotherapy divided by viability % of combination) (GS365NS; Day 8): 1.019 |
